What was measured:
[1] = biological target: T1, human recombinant 15-PGDH (Homo sapiens, UniProt P15428); experiment: Recombinant 15-PGDH enzymatic inhibition assay (PGDH-Lumi, NADH signal); format: biochemical; settings: recombinant 15-PGDH; 15 min pre-incubation, 60 min reaction with PGE2 and NAD+, NADH signal
T1 sequence (P15428 1-266): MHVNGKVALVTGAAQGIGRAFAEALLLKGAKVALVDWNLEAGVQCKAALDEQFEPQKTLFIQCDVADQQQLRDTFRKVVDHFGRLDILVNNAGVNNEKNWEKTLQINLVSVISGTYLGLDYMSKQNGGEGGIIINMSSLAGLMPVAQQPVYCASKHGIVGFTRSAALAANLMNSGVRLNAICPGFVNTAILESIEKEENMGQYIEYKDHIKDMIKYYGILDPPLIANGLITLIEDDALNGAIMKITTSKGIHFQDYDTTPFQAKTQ
Summary of the method: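 Recombinant 15-PGDH pre-incubated 15 min at room temperature with compound (22 concentrations, 2-fold dilutions) in 50 mM Tris pH 7.5, 0.01% Tween-20, […].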

15-PGDH in A549 cells = biological target: T2, 15-PGDH in A549 cells (Homo sapiens, UniProt P15428); experiment: A549 cellular 15-PGDH assay (PGE2 accumulation, HTRF); format: cell-based; settings: interleukin-stimulated, inhibitor 24 hrs, PGE2 by competitive HTRF, read-out: A549 Cell Assay IC50
T2 construct: endogenous in cells; host or cells: A549
T2 sequence (P15428 1-266): T1 sequence (P15428 1-266)
Summary of the method: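 IL-13-stimulated A549 lung carcinoma cells released PGE2, which was measured in supernatants by competitive HTRF with a Eu-cryptate anti-PGE2 antibody and labelled PGE2. Signal falls as PGE2 rises. IC50 values were derived from the binding data.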

Row | SMILES | IC50 [1] | IC50 (15-PGDH in A549 cells)
1 | CC(O)c1cc2c(-c3ccnn3C)cc(-c3cnc4nn(C)cc4c3)nc2s1 (stereo not shown) [Compound B6, 1-(4-(1-methyl-1H-pyrazol-5-yl)-6-(2-methyl-2H-pyrazolo[3,4-b]pyridin-5-yl)thieno[2,3-b]pyridin-2-yl)ethan-1-ol] | 2.93 nM | 39.4 nM
2 | CC(O)c1cc2c(C3CC3)cc(-c3cnc4nn(C)cc4c3)nc2s1 (stereo not shown) [Compound B11, 1-(4-cyclopropyl-6-(2-methyl-2H-pyrazolo[3,4-b]pyridin-5-yl)thieno[2,3-b]pyridin-2-yl)ethanol] | 7.12 nM | 31.9 nM
3 | CCC(O)c1cc2c(C3CC3)cc(-c3cnc4nn(C)cc4c3)nc2s1 (stereo not shown) [Compound B13, 1-(4-cyclopropyl-6-(2-methyl-2H-pyrazolo[3,4-b]pyridin-5-yl)thieno[2,3-b]pyridin-2-yl)-1-propanol] | 0.901 nM | 4.19 nM
4 | Cn1cc2cc(-c3ccc4cc(C(O)C5CCOCC5)sc4n3)cnc2n1 (stereo not shown) [Compound B15, (6-(2-methyl-2H-pyrazolo[3,4-b]pyridin-5-yl)thieno[2,3-b]pyridin-2-yl)(tetrahydro-2H-pyran-4-yl)methanol] | 0.701 nM | 0.957 nM
5 | Cn1cc2cc(-c3ccc4cc(C(O)C5CC5)sc4n3)cnc2n1 (stereo not shown) [Compound B16, cyclopropyl(6-(2-methyl-2H-pyrazolo[3,4-b]pyridin-5-yl)thieno[2,3-b]pyridin-2-yl)methanol] | 0.471 nM | 1.19 nM
6 | Cn1cc2cc(-c3ccc4cc(C(O)C5CCC5)sc4n3)cnc2n1 (stereo not shown) [Compound B18, cyclobutyl(6-(2-methyl-2H-pyrazolo[3,4-b]pyridin-5-yl)thieno[2,3-b]pyridin-2-yl)methanol] | 0.382 nM | 0.0918 nM
7 | Cn1cc2cc(-c3ccc4cc(C(O)C5CCOC5)sc4n3)cnc2n1 (stereo not shown) [Compound B19] | 0.538 nM | 0.171 nM
8 | CCC(O)c1cc2ccc(-c3cnc4nn(C)cc4c3)nc2s1 (stereo not shown) [Compound B22, 1-(6-(2-methyl-2H-pyrazolo[3,4-b]pyridin-5-yl)thieno[2,3-b]pyridin-2-yl)-1-propanol] | 0.513 nM | 1.29 nM
9 | Cn1cc2cc(-c3ccc4cc(C(O)C(F)(F)F)sc4n3)cnc2n1 (stereo not shown) [Compound B23, 2,2,2-trifluoro-1-(6-(2-methyl-2H-pyrazolo[3,4-b]pyridin-5-yl)thieno[2,3-b]pyridin-2-yl)ethanol] | 0.341 nM | 1.41 nM
10 | CC(C)C(O)c1cc2ccc(-c3cnc4nn(C)cc4c3)nc2s1 (stereo not shown) [Compound B24, 2-methyl-1-(6-(2-methyl-2H-pyrazolo[3,4-b]pyridin-5-yl)thieno[2,3-b]pyridin-2-yl)propan-1-ol] | 0.517 nM | 0.579 nM
11 | CC(O)c1cc2ccc(-c3cnc4nn(C)cc4c3)nc2s1 (stereo not shown) [Compound B25, 1-(6-(2-methyl-2H-pyrazolo[3,4-b]pyridin-5-yl)thieno[2,3-b]pyridin-2-yl)ethanol] | 5.85 nM | 16.4 nM
12 | CCCC(O)c1cc2ccc(-c3cnc4nn(C)cc4c3)nc2s1 (stereo not shown) [Compound B27, 1-(6-(2-methyl-2H-pyrazolo[3,4-b]pyridin-5-yl)thieno[2,3-b]pyridin-2-yl)-1-butanol] | 0.402 nM | 0.597 nM
13 | Cn1cc2cc(-c3ccc4cc(C(O)C5COC5)sc4n3)cnc2n1 (stereo not shown) [Compound B28, (6-(2-methyl-2H-pyrazolo[3,4-b]pyridin-5-yl)thieno[2,3-b]pyridin-2-yl)(oxetan-3-yl)methanol] | 0.463 nM | 1.07 nM
14 | COCCC(O)c1cc2ccc(-c3cnc4nn(C)cc4c3)nc2s1 (stereo not shown) [Compound B29, 3-methoxy-1-(6-(2-methyl-2H-pyrazolo[3,4-b]pyridin-5-yl)thieno[2,3-b]pyridin-2-yl)propan-1-ol] | 0.38 nM | 1.04 nM
15 | Cn1cc2cc(-c3ccc4cc(C(O)C5CC(F)(F)C5)sc4n3)cnc2n1 (stereo not shown) [Compound B30, (3,3-difluorocyclobutyl)(6-(2-methyl-2H-pyrazolo[3,4-b]pyridine-5-yl)thieno[2,3-b]pyridine-2-yl)methanol] | 0.26 nM | 0.795 nM
16 | Cn1cc2cc(-c3ccc4cc(C(O)C5CCC(F)(F)CC5)sc4n3)cnc2n1 (stereo not shown) [Compound B31, (4,4-difluorocyclohexyl)(6-(2-methyl-2H-pyrazolo[3,4-b]pyridin-5-yl)thieno[2,3-b]pyridin-2-yl)methanol] | 0.42 nM | 0.553 nM

Row | SMILES | IC50 [1] | IC50 (15-PGDH in A549 cells)
17 | COCC(O)c1cc2ccc(-c3cnc4nn(C)cc4c3)nc2s1 (stereo not shown) [Compound B32, 2-methoxy-1-(6-(2-methyl-2H-pyrazolo[3,4-b]pyridin-5-yl)thieno[2,3-b]pyridin-2-yl)ethanol] | 1.18 nM | 7.49 nM
18 | Cn1cnc(-c2ccc3cc(C(O)C4CC(F)(F)C4)sc3n2)cc1=O (stereo not shown) [Compound B49, 6-(2-((3,3-difluorocyclobutyl)(hydroxy)methyl)thieno[2,3-b]pyridine-6-yl)-3-methylpyrimidin-4(3H)-one] | 0.608 nM | 0.739 nM
19 | CC(C)n1cc2cc(-c3ccc4cc(C(O)C5CC(F)(F)C5)sc4n3)ccc2n1 (stereo not shown) [Compound B56, (3,3-difluorocyclobutyl)(6-(2-(2-propanyl)-2H-indazol-5-yl)thieno[2,3-b]pyridin-2-yl)methanol] | 1.15 nM | 3.22 nM
20 | Cn1cc2cc(-c3ccc4cc(C(O)C5CCCC5)sc4c3)cnc2n1 (stereo not shown) [Compound B58, cyclopentyl(6-(2-methyl-2H-pyrazolo[3,4-b]pyridin-5-yl)-1-benzothiophen-2-yl)methanol] | 0.488 nM | 2.5 nM
21 | Cn1cc2cc(-c3ccc4cc(C(O)CCC(F)(F)F)sc4c3)cnc2n1 (stereo not shown) [Compound B60, 4,4,4-trifluoro-1-(6-(2-methyl-2H-pyrazolo[3,4-b]pyridin-5-yl)-1-benzothiophen-2-y1)-1-butanol] | 3.03 nM | 9.36 nM
22 | CC(C)n1ncc2cc(-c3ccc4cc(C(O)C5CC(F)(F)C5)sc4n3)cnc21 (stereo not shown) [Compound B65, (3,3-difluorocyclobutyl)(6-(1-(2-propanyl)-1H-pyrazolo[3,4-b]pyridin-5-yl)thieno[2,3-b]pyridin-2-yl)methanol] | 0.944 nM | 0.437 nM
23 | [2H]C(O)(c1cc2ccc(-c3cnc4nn(C)cc4c3)nc2s1)C1CCOCC1 (stereo not drawn) [Compound B66, (6-(2-methyl-2H-pyrazolo[3,4-b]pyridin-5-yl)thieno[2,3-b]pyridin-2-yl)(tetrahydro-2H-pyran-4-yl)methan-d-ol] | 0.948 nM | 0.829 nM
24 | Cn1nnc2cc(-c3ccc4cc([C@H](O)C5CC(F)(F)C5)sc4n3)cnc21 [Compound B82R, (R)-(3,3-difluorocyclobutyl)(6-(3-methyl-3H-[1,2,3]triazolo[4,5-b]pyridin-6-yl)thieno[2,3-b]pyridin-2-yl)methanol] | 0.398 nM | 0.0124 nM
25 | Cn1cc2cc(-c3cnc4cc([C@H](O)C5CC(F)(F)C5)sc4n3)cnc2n1 [Compound B92R, (R)-(3,3-difluorocyclobutyl)(3-(2-methyl-2H-pyrazolo[3,4-b]pyridin-5-yl)thieno[2,3-b]pyrazin-6-yl)methanol] | 0.511 nM | 0.409 nM
26 | Cn1cc2cc(-c3cnc4cc([C@@H](O)C5CC(F)(F)C5)sc4n3)cnc2n1 [Compound B92S, (S)-(3,3-difluorocyclobutyl)(3-(2-methyl-2H-pyrazolo[3,4-b]pyridin-5-yl)thieno[2,3-b]pyrazin-6-yl)methanol] | 5.14 nM | 3.44 nM
27 | Cn1cc2cc(-c3ccc4cc(C5(O)CC(F)(F)C5)sc4n3)cnc2n1 [Compound C5, 3,3-difluoro-1-(6-(2-methyl-2H-pyrazolo[3,4-b]pyridin-5-yl)thieno[2,3-b]pyridin-2-yl)cyclobutanol] | 0.371 nM | 1.69 nM
28 | Cn1cc2cc(-c3ccc4cc(C5(O)CCC(F)(F)CC5)sc4n3)cnc2n1 [Compound C15, 4,4-difluoro-1-(6-(2-methyl-2H-pyrazolo[3,4-b]pyridin-5-yl)thieno[2,3-b]pyridin-2-yl)cyclohexanol] | 2.85 nM | 12.8 nM
29 | Cn1cc2cc(-c3ccc4cc(C5(O)CCC5)sc4n3)cnc2n1 [Compound C21, 1-(6-(2-methyl-2H-pyrazolo[3,4-b]pyridin-5-yl)thieno[2,3-b]pyridin-2-yl)cyclobutanol] | 1.76 nM | 18.9 nM
30 | Cn1cc2cc(-c3cc(-c4ccnn4C)c4cc(C(C)(O)C5CCC5)sc4n3)cnc2n1 (stereo not shown) [Compound C23, 1-cyclobutyl-1-(6-(2-methyl-2H-pyrazolo[3,4-b]pyridin-5-yl)-4-(1-methyl-1H-pyrazol-5-yl)thieno[2,3-b]pyridin-2-yl)ethanol] | 0.543 nM | 4.77 nM
31 | Cn1cc2cc(-c3ccc4cc(C5(O)CC6(CCC6)C5)sc4n3)cnc2n1 [Compound C25, 2-(6-(2-methyl-2HI-pyrazolo[3,4-b]pyridin-5-yl)thieno[2,3-b]pyridin-2-yl)spiro[3.3]heptan-2-ol] | 0.332 nM | 0.14 nM
32 | Cn1cc2cc(-c3ccc4cc(C5(O)CC(C)(C)C5)sc4n3)cnc2n1 [Compound C26, 3,3-dimethyl-1-(6-(2-methyl-2H-pyrazolo[3,4-b]pyridin-5-yl)thieno[2,3-b]pyridin-2-yl)cyclobutanol] | 0.273 nM | 0.0601 nM

Source: patent US20240409557A1, “5,6-FUSED AND 6,6-FUSED BICYCLIC ALCOHOLS AND ETHERS AND COMPOSITIONS FOR USE AS 15-PROSTAGLANDIN DEHYDROGENASE MODULATORS” (AMGEN INC., priority 2023, published 2024)
